Source: patent US20180044628A1, “Method for Biofilm Control and Treatment” (priority 2015, published 2018)

Key:
Assay type in all cases: cell-based, Bacillus subtilis NCIB 3610
[1] = system: Bacillus subtilis biofilms; assay: Biofilm growth oscillations in a microfluidic device, followed by time-lapse phase contrast microscopy and image differencing
Method: Growth conditions. The biofilms were grown using MSgg medium^16. It contains 5 mM potassium phosphate buffer (pH 7.0), 100 mM MOPS buffer (pH 7.0, adjusted using NaOH), 2 mM MgCl2, 700 μM CaCl2, 50 μM MnCl2, 100 μM FeCl3, 1 μM ZnCl2, 2 μM thiamine HCl, 0.5% (v/v) glycerol and 0.5% (w/v) monosodium glutamate. The MSgg medium was made from stock solutions on the day of the experiment, and the stock solution for glutamate was made each week.
Microfluidics. The CellASIC ONIX Microfluidic Platform and the Y04D microfluidic plate (EMD Millipore) were used. It provides unconventionally large chambers, allowing the formation of colonies containing millions of cells, yet still leaves room for media flow. Media flow in the microfluidic chamber was driven by a pneumatic pump from the CellASIC ONIX Microfluidic Platform, and the pressure from the pump was kept stable during the course of the oscillation. In most of the experiments, a pump pressure of 1 psi was used with only one media inlet open (there are 6 media inlets in the Y04D plate), which corresponds to a flow speed of ˜16 μm/s in the growth chamber.
On the day before the experiment, cells from −80° C. glycerol stock were streaked onto LB agar plate and incubated at 37° C. for overnight. The next day morning, a single colony was picked from the plate and inoculated into 3 ml of LB broth in a 50 ml conical tube, and then incubated in 37° C. shaker. After 2.5 hours of incubation, the cell culture was centrifuged at 2100 rcf for 1 min, and then the cell pellet was re-suspended in MSgg and then immediately loaded into microfluidics. After the loading, cells in the microfluidic chamber were incubated at 37° C. for 90 min, and then the temperature was kept at 30° C. for the rest of the experiment.
Time-Lapse Microscopy. The growth of the biofilms was recorded using phase contrast microscopy. The microscopes used were Olympus IX81 and IX83, and DeltaVision PersonalDV. To image entire biofilms, 10× lens objectives were used in most of the experiments. Images were taken every 10 min Whenever fluorescence images were recorded, the minimum exposure time was used that still provided a good signal-to-noise ratio.
(§1) Biofilm growth rate. ImageJ (National Institutes of Health) and MATLAB (MathWorks) were used for image analysis. In house software was also developed to perform colony detection and quantification of colony expansion. Multiple methods of colony detection were used to ensure the accuracy of the analysis. To detect regions of expansion in a biofilm, image differencing was performed on snapshots of the biofilm from time-lapse microscopy videos. Specifically, the difference between two consecutive phase contrast images (taken 10 min apart) was calculated by finding the absolute difference between each pixel in each image. […] The intensity values from the stack correlate with the expansion inside the biofilm. The growth area was determined by converting difference images to binary images and then measuring the area of the colony growth region (white pixels). To measure cell replication time, the length and division of individual cells were tracked in the biofilm periphery (FIG. 8b).

[2] = system: Bacillus subtilis biofilms; assay: Cell death (Sytox Green) and cell growth (difference images) within biofilms under external attack
Method: Scale bar represents 50 μm. […] Error bars represent standard deviations.
Scale bar represents 100 μm.
as §1

nasA promoter = assay: PnasA-YFP reporter of glutamine limitation in biofilms, with constitutive Phyperspank-CFP as control
Method: FIG. 2a. […] Glutamine limitation was monitored using YFP expressed from the nasA promoter, which is activated upon glutamine limitation^21. FIG. 2b. […] FIG. 2c. Growth area before and after addition of 1 mM glutamine to an oscillating colony. FIG. 2d. […] FIG. 2e. […] Scale bar represents 100 μm. FIG. 2f. Growth area of an oscillating colony before and after addition of 30 mM glutamate (shading). FIG. 2g.
To determine whether biofilms experience glutamine limitation, expression of nasA, one of several genes activated in response to a lack of glutamine^21, was measured.

[3] = 1 mM glutamine added to growth media

OCC(O)CO [glycerol]
effect on biofilm oscillations ([1]; glycerol increased by 5 times of normal MSgg levels): does not

OO [hydrogen peroxide]
killing of biofilm ([2]; GDH overexpression strain (Phyp-RocG, induced with 1 mM IPTG) exposed to hydrogen peroxide): more effective global killing throughout the biofilm
cell death (Sytox marker) in biofilm ([2]; wild type biofilm, H2O2 2% w/w (FIG. 4b) or 0.15% v/v (FIG. 12)): increased cell death was observed predominantly in the biofilm periphery
growth of interior cells after attack ([2]; wild type biofilm, H2O2 2% w/w (FIG. 4c) or 0.15% v/v (FIG. 12)): led to growth of interior cells

NC(=O)CC[C@H](N)C(=O)O [glutamine]
expression of constitutive promoter (Phyperspank-CFP + 1 mM IPTG) (nasA promoter; [3]): did not affect expression of a constitutive promoter
nasA promoter expression (PnasA-YFP) (nasA promoter; [3]): reduced nasA promoter expression
effect on periodic halting of biofilm growth (oscillations) ([1]; 1 mM glutamine added to MSgg medium, oscillating colony): eliminated periodic halting of biofilm growth

N [ammonium]
expression from constitutive reporter (Phyperspank-CFP + 1 mM IPTG) (nasA promoter; 1 mM external ammonium added): does not affect expression from a constitutive reporter
expression from the PnasA-YFP reporter (nasA promoter; 1 mM external ammonium added): represses expression from the PnasA-YFP reporter
colony growth after removal of external ammonium ([1]; additional ammonium (13 mM) suddenly removed from the media): growth in the biofilm periphery halted
effect on periodic halting in biofilm expansion ([1]; media supplemented with 1 mM ammonium): eliminated the periodic halting in biofilm expansion

N[C@@H](CCC(=O)O)C(=O)[O-].[Na+] [glutamate, monosodium glutamate]
effect on biofilm oscillations ([1]; 30 mM glutamate added to MSgg medium, oscillating colony): not quenched
effect on biofilm oscillations ([1]; glutamate increased by 5 times of normal MSgg levels): leads to quenching of the oscillation

O=C(N[C@H](CO)[C@H](O)c1ccc([N+](=O)[O-])cc1)C(Cl)Cl [chloramphenicol]
growth of interior cells after attack ([2]; wild type biofilm, chloramphenicol 5 μg/ml (FIG. 12)): growth of interior cells was observed
